Measured values published in patent US10464882B2, “Y-type discrete polyethylene glycol derivative and preparation method thereof” (JENKEM TECHNOLOGY CO., LTD. (BEIJING), priority 2015, dated 2019).
Like-named read-outs stand apart in the source and are kept apart here.

Tests used:
[1] = Comparison test of dispersion of cholesterol and cholesterol derivatives in water; format: physicochemical; settings: 20 mg in 50 mL water, 20° C. water bath, shaken vigorously every 5 min for 30 min
[2] = Comparison test of solubility of cholesterol derivatives in water (Chinese pharmacopoeia method); format: physicochemical
Description: The solubility of cholesterol derivatives in water was determined according to the method in “Chinese pharmacopoeia”: […] After 30 min, 1.5 mL water was further added, and the resulting mixture was placed in a 20° C. water bath with the same procedure for dissolution. Until 9 mL water was added, the solution was clear. […] After 30 min, 5 mL water was further added, and the resulting mixture was placed in a 20° C. water bath with the same procedure for dissolution until 25 mL water was added. 5 mL solution was taken from the dilute solution, the same procedure was carried out until 10 mL water was added, and the solution was clear.

Row | dispersion in water, naked eye observation [1] | solubility in water [2] | solubility in water ([2]; water, 20° C. water bath, shaken every 5 min for 30 min) | Compound
1 | white emulsion | 4.61 mg/100 g |  | COCCOCCOCCOCCOCCOCCOCCOC(=O)O[C@H]1CC[C@@]2(C)C(=CC[C@H]3[C@@H]4CC[C@H]([C@H](C)CCCC(C)C)[C@@]4(C)CC[C@@H]32)C1 [cholesterol derivative of mEG7-OH]
2 | completely insoluble |  | < 0.2 mg/100 g | CC(C)CCC[C@@H](C)[C@H]1CC[C@H]2[C@@H]3CC=C4C[C@@H](O)CC[C@]4(C)[C@H]3CC[C@]12C [cholesterol]
